In PMC8857453 (Biotechnology Reports, 2022):
Read-outs that look alike come from different tables or passages of the source.

How the values were obtained:
Aps-t [1] = tested on: Aps-t
Aps-t [2] = settings: 50 mM MES pH 6, 100 mM NaCl, 1 mM MgCl2, 37 °C; pNPP stock in 0.1 M sodium acetate pH 4.5

Row | Km (Aps-t [1]) | Km (Aps-t [2]) | SMILES
1 | 270 ± 20 µM | – | Nc1ncnc2c1ncn2[C@@H]1O[C@H](COP(=O)(O)O)[C@@H](O)[C@H]1O [AMP]
2 | 1000 ± 120 µM | – | Nc1ncnc2c1ncn2[C@@H]1O[C@H](COP(=O)(O)OP(=O)(O)OP(=O)(O)O)[C@@H](O)[C@H]1O [ATP]
3 | – | 94 ± 14 µM | O=[N+]([O-])c1ccc(OP(=O)(O)O)cc1 [pNPP]
4 | 190 ± 10 µM | – | Nc1ncnc2c1ncn2[C@@H]1O[C@H](COP(=O)(O)OP(=O)(O)O)[C@@H](O)[C@H]1O [ADP]
